In ChEMBL document CHEMBL3632602, “Selenoacyclovir and Selenoganciclovir: Discovery of a New Template for Antiviral Agents” (J Med Chem, 2015):
In brackets after ≈: the same amount, converted by molar mass.

Key:
[1] = system: Human alphaherpesvirus 2; assay: Antiviral activity against Herpes simplex virus 2 strain MS VR-540 infected in African green monkey Vero cells after 3 days by MTT assay; assay type: functional, organism-based; details: Human alphaherpesvirus 2, MS VR-540, Vero, 72 h
[2] = Cytotoxicity against human HEL299 cells after 3 days by MTT assay; assay type: cell-based, HEL 299
[3] = system: Human alphaherpesvirus 3; assay: Antiviral activity against Varicella-zoster virus Ellen VR-1367 infected in African green monkey Vero cells after 3 days by MTT assay; assay type: functional, organism-based; details: Human alphaherpesvirus 3, Ellen VR-1367, Vero, 72 h
[4] = Solubility of compound in double-deionized water after 3 days by LC-MS/MS analysis; assay type: physicochemical
[5] = system: Human betaherpesvirus 5; assay: Antiviral activity against Human cytomegalovirus Davis VR-807 infected in […] after 3 days by MTT assay; assay type: functional, organism-based; details: Human betaherpesvirus 5, Davis VR-807, 72 h
[6] = system: Human alphaherpesvirus 1; assay: Antiviral activity against Herpes simplex virus 1 strain F VR-733 infected in African green monkey Vero cells after 3 days by MTT assay; assay type: functional, organism-based; details: Human alphaherpesvirus 1, Strain F ATCC VR 733, Vero, 72 h

Structure (SMILES)	EC50 [1] [µM]	CC50 at 72 h [2] [µM]	EC50 [3] [µM]	solubility at 72 h [4] [µg/mL]	EC50 [5] [µM]	EC50 [6] [µM]
Nc1nc2c(ncn2C[Se]CCO)c(=O)[nH]1	6.34	> 100	> 100	1060 (≈ 3.68 mM)	> 100	1.47
Nc1nc2c(ncn2C[Se]C(CO)CO)c(=O)[nH]1	> 100	> 100	> 100	2230 (≈ 7.01 mM)	53.1	> 100
Nc1nc2c(ncn2COCCO)c(=O)[nH]1 [ACYCLOVIR]	1.02	> 100	6.4	3920 (≈ 17.4 mM)	18.9	0.66
Nc1nc2c(ncn2COC(CO)CO)c(=O)[nH]1 [GANCICLOVIR]	1.4	> 100	11.1	4960 (≈ 19.4 mM)	2.14	0.9
